Where “and” joins values, the source holds several entries; their conditions need not be identical. Equal entries are not always repeated.
What was measured:
CCRF-CEM = experiment: NCI-60 one-dose SRB screen (Leukemia); type: cell-based; details: Homo sapiens, single dose 10 µM, 48 h, read-out: Growth inhibition percent (GI %)
HL-60(TB) = experiment: NCI-60 one-dose SRB screen (Leukemia); type: cell-based; details: Homo sapiens, single dose 10 µM, 48 h, read-out: Growth inhibition percent (GI %)
K-562 = experiment: NCI-60 one-dose SRB screen (Leukemia); type: cell-based; details: Homo sapiens, K562, single dose 10 µM, 48 h, read-out: Growth inhibition percent (GI %)
MOLT-4 = experiment: NCI-60 one-dose SRB screen (Leukemia); type: cell-based; details: Homo sapiens, single dose 10 µM, 48 h, read-out: Growth inhibition percent (GI %)
RPMI-8226 = experiment: NCI-60 one-dose SRB screen (Leukemia); type: cell-based; details: Homo sapiens, single dose 10 µM, 48 h, read-out: Growth inhibition percent (GI %)
A549/ATCC = experiment: NCI-60 one-dose SRB screen (Non-Small Cell Lung Cancer); type: cell-based; details: Homo sapiens, single dose 10 µM, 48 h, read-out: Growth inhibition percent (GI %)
EKVX = experiment: as above; type: cell-based; details: Homo sapiens, single dose 10 µM, 48 h, read-out: Growth inhibition percent (GI %)
HOP-62 = experiment: as above; type: cell-based; details: Homo sapiens, single dose 10 µM, 48 h, read-out: Growth inhibition percent (GI %)
HOP-92 = experiment: as above; type: cell-based; details: Homo sapiens, single dose 10 µM, 48 h, read-out: Growth inhibition percent (GI %)
NCI-H226 = experiment: as above; type: cell-based; details: Homo sapiens, single dose 10 µM, 48 h, read-out: Growth inhibition percent (GI %)
NCI-H23 = experiment: as above; type: cell-based; details: Homo sapiens, single dose 10 µM, 48 h, read-out: Growth inhibition percent (GI %)
NCI-H322M = experiment: as above; type: cell-based; details: Homo sapiens, single dose 10 µM, 48 h, read-out: Growth inhibition percent (GI %)
NCI-H460 = experiment: as above; type: cell-based; details: Homo sapiens, single dose 10 µM, 48 h, read-out: Growth inhibition percent (GI %)
NCI-H522 = experiment: as above; type: cell-based; details: Homo sapiens, single dose 10 µM, 48 h, read-out: Growth inhibition percent (GI %)
SF-268 = experiment: NCI-60 one-dose SRB screen (CNS Cancer); type: cell-based; details: Homo sapiens, single dose 10 µM, 48 h, read-out: Growth inhibition percent (GI %)
SF-295 = experiment: NCI-60 one-dose SRB screen (CNS Cancer); type: cell-based; details: Homo sapiens, single dose 10 µM, 48 h, read-out: Growth inhibition percent (GI %)
SF-539 = experiment: NCI-60 one-dose SRB screen (CNS Cancer); type: cell-based; details: Homo sapiens, single dose 10 µM, 48 h, read-out: Growth inhibition percent (GI %)
SNB-19 = experiment: NCI-60 one-dose SRB screen (CNS Cancer); type: cell-based; details: Homo sapiens, single dose 10 µM, 48 h, read-out: Growth inhibition percent (GI %)
SNB-75 = experiment: NCI-60 one-dose SRB screen (CNS Cancer); type: cell-based; details: Homo sapiens, single dose 10 µM, 48 h, read-out: Growth inhibition percent (GI %)
U251 = experiment: NCI-60 one-dose SRB screen (CNS Cancer); type: cell-based; details: Homo sapiens, U-251, single dose 10 µM, 48 h, read-out: Growth inhibition percent (GI %)
LOX IMVI = experiment: NCI-60 one-dose SRB screen (Melanoma); type: cell-based; details: Homo sapiens, single dose 10 µM, 48 h, read-out: Growth inhibition percent (GI %)
M14 = experiment: NCI-60 one-dose SRB screen (Melanoma); type: cell-based; details: Homo sapiens, single dose 10 µM, 48 h, read-out: Growth inhibition percent (GI %)
MALME-3M = experiment: NCI-60 one-dose SRB screen (Melanoma); type: cell-based; details: Homo sapiens, single dose 10 µM, 48 h, read-out: Growth inhibition percent (GI %)
MDA-MB-435 = experiment: NCI-60 one-dose SRB screen (Melanoma); type: cell-based; details: Homo sapiens, single dose 10 µM, 48 h, read-out: Growth inhibition percent (GI %)
SK-MEL-28 = experiment: NCI-60 one-dose SRB screen (Melanoma); type: cell-based; details: Homo sapiens, single dose 10 µM, 48 h, read-out: Growth inhibition percent (GI %)
SK-MEL-2 = experiment: NCI-60 one-dose SRB screen (Melanoma); type: cell-based; details: Homo sapiens, single dose 10 µM, 48 h, read-out: Growth inhibition percent (GI %)
SK-MEL-5 = experiment: NCI-60 one-dose SRB screen (Melanoma); type: cell-based; details: Homo sapiens, single dose 10 µM, 48 h, read-out: Growth inhibition percent (GI %)
UACC-257 = experiment: NCI-60 one-dose SRB screen (Melanoma); type: cell-based; details: Homo sapiens, single dose 10 µM, 48 h, read-out: Growth inhibition percent (GI %)
UACC-62 = experiment: NCI-60 one-dose SRB screen (Melanoma); type: cell-based; details: Homo sapiens, single dose 10 µM, 48 h, read-out: Growth inhibition percent (GI %)
IGROV1 = experiment: NCI-60 one-dose SRB screen (Ovarian cancer); type: cell-based; details: Homo sapiens, IGROV-1, single dose 10 µM, 48 h, read-out: Growth inhibition percent (GI %)
NCI/ADR-RES = experiment: NCI-60 one-dose SRB screen (Ovarian cancer); type: cell-based; details: Homo sapiens, single dose 10 µM, 48 h, read-out: Growth inhibition percent (GI %)
OVCAR-3 = experiment: NCI-60 one-dose SRB screen (Ovarian cancer); type: cell-based; details: Homo sapiens, single dose 10 µM, 48 h, read-out: Growth inhibition percent (GI %)
OVCAR-4 = experiment: NCI-60 one-dose SRB screen (Ovarian cancer); type: cell-based; details: Homo sapiens, single dose 10 µM, 48 h, read-out: Growth inhibition percent (GI %)
OVCAR-5 = experiment: NCI-60 one-dose SRB screen (Ovarian cancer); type: cell-based; details: Homo sapiens, single dose 10 µM, 48 h, read-out: Growth inhibition percent (GI %)
OVCAR-8 = experiment: NCI-60 one-dose SRB screen (Ovarian cancer); type: cell-based; details: Homo sapiens, single dose 10 µM, 48 h, read-out: Growth inhibition percent (GI %)
SK-OV-3 = experiment: NCI-60 one-dose SRB screen (Ovarian cancer); type: cell-based; details: Homo sapiens, single dose 10 µM, 48 h, read-out: Growth inhibition percent (GI %)
DU-145 = experiment: NCI-60 one-dose SRB screen (Prostate Cancer); type: cell-based; details: Homo sapiens, single dose 10 µM, 48 h, read-out: Growth inhibition percent (GI %)
PC-3 = experiment: NCI-60 one-dose SRB screen (Prostate Cancer); type: cell-based; details: Homo sapiens, single dose 10 µM, 48 h, read-out: Growth inhibition percent (GI %)
BT-549 = experiment: NCI-60 one-dose SRB screen (Breast Cancer); type: cell-based; details: Homo sapiens, single dose 10 µM, 48 h, read-out: Growth inhibition percent (GI %)
HS 578T = experiment: NCI-60 one-dose SRB screen (Breast Cancer); type: cell-based; details: Homo sapiens, single dose 10 µM, 48 h, read-out: Growth inhibition percent (GI %)
MCF-7 = experiment: NCI-60 one-dose SRB screen (Breast Cancer); type: cell-based; details: Homo sapiens, MCF7, single dose 10 µM, 48 h, read-out: Growth inhibition percent (GI %)
MDA-MB-231/ATCC = experiment: NCI-60 one-dose SRB screen (Breast Cancer); type: cell-based; details: Homo sapiens, single dose 10 µM, 48 h, read-out: Growth inhibition percent (GI %)
MDA-MB-468 = experiment: NCI-60 one-dose SRB screen (Breast Cancer); type: cell-based; details: Homo sapiens, single dose 10 µM, 48 h, read-out: Growth inhibition percent (GI %)
T-47D = experiment: NCI-60 one-dose SRB screen (Breast Cancer); type: cell-based; details: Homo sapiens, T47D, single dose 10 µM, 48 h, read-out: Growth inhibition percent (GI %)
hCA IX = hCA IX (Homo sapiens, UniProt Q16790); experiment: CA inhibitory activity, spectrophotometric p-NPA assay; type: biochemical; details: p-NPA substrate, pH 7.5, 25 °C, triplicate; read-out: IC50 (µM) ± SD hCA IX
Experimental: The software used to calculate CA IC50 along with statistical analysis of the results is GraphPad Prism 9.00. Results were estimated by using one-way ANOVA and the Bonferroni’s multiple comparisons posthoc test was performed (P < 0.05) [46]
Carbonic anhydrase inhibitory activity:
The spectrophotometric assay was conducted in HEPES-Tris buffer, NaCl of pH 7.5 (20mM) at 25◦C. Each inhibitory well-consisted of 50 μL of assay buffer solution, 20 μL of hCA enzyme solution (20 ng/μL in Assay Buffer), and 50 μL of test compound in HPLC grade DMSO (maintain 10% of the final concentration). The mixture solution was
Substrate p-nitrophenyl acetate (p-NPA) (0.7mM) was prepared in HPLC grade methanol and the reaction was started by adding 20 μL to a well in a 96-well-plate. The amount of product formed was measured for 30 min continuously at 1 min intervals at 400 nm in a 96-well-plate using xMARK microplate spectrophotometer, Bio-Rad (USA). The activity of the controlled compound was taken as 100%. All experiments were carried out in triplicates of each used concentration, and results are represented as a

SMILES: CCOC(=O)c1ccc(NC(=O)COC(=O)c2cn(-c3ccc(S(N)(=O)=O)cc3)nc2-c2ccc(OC)cc2)cc1 [Compound 5c, 2-[(4-(Ethoxycarbonyl)phenyl)amino]-2-oxoethyl 3-(4-methoxyphenyl)-1-(4-sulfamoylphenyl)-1H-pyrazole-4-carboxylate]
- inhibition at 10 µM (CCRF-CEM): 62.6%
- inhibition at 10 µM (HL-60(TB)): 48.4%
- inhibition at 10 µM (K-562): 61.7%
- inhibition at 10 µM (MOLT-4): 65.9%
- inhibition at 10 µM (RPMI-8226): 58.6%
- inhibition at 10 µM (A549/ATCC): 39.4%
- inhibition at 10 µM (EKVX): 42.2%
- inhibition at 10 µM (HOP-62): 12%
- inhibition at 10 µM (HOP-92): 26%
- inhibition at 10 µM (NCI-H226): 26.7%
- inhibition at 10 µM (NCI-H23): 17.5%
- inhibition at 10 µM (NCI-H322M): 9.97%
- inhibition at 10 µM (NCI-H460): 28.8%
- inhibition at 10 µM (NCI-H522): 31%
- inhibition at 10 µM (SF-268): 28.5%
- inhibition at 10 µM (SF-295): 32.7%
- inhibition at 10 µM (SF-539): 38.7%
- inhibition at 10 µM (SNB-19): 30.7%
- inhibition at 10 µM (SNB-75): 49.3%
- inhibition at 10 µM (U251): 34.3%
- inhibition at 10 µM (LOX IMVI): 21.3%
- inhibition at 10 µM (M14): 40.3%
- inhibition at 10 µM (MALME-3M): 21%
- inhibition at 10 µM (MDA-MB-435): 27.3%
- inhibition at 10 µM (SK-MEL-28): 24.6%
- inhibition at 10 µM (SK-MEL-2): 23.1%
- inhibition at 10 µM (SK-MEL-5): 34.9%
- inhibition at 10 µM (UACC-257): 25.4%
- inhibition at 10 µM (UACC-62): 44.5%
- inhibition at 10 µM (IGROV1): < 5%
- inhibition at 10 µM (NCI/ADR-RES): < 5%
- inhibition at 10 µM (OVCAR-3): 23.2%
- inhibition at 10 µM (OVCAR-4): 42.5%
- inhibition at 10 µM (OVCAR-5): 13.7%
- inhibition at 10 µM (OVCAR-8): 5.25%
- inhibition at 10 µM (SK-OV-3): 11.6%
- inhibition at 10 µM (DU-145): 14.7%
- inhibition at 10 µM (PC-3): 50.9%
- inhibition at 10 µM (BT-549): 21.5%
- inhibition at 10 µM (HS 578T): 31.3%
- inhibition at 10 µM (MCF-7): 48.8%
- inhibition at 10 µM (MDA-MB-231/ATCC): 18.8%
- inhibition at 10 µM (MDA-MB-468): 40%
- inhibition at 10 µM (T-47D): 46.2%
- IC50 (hCA IX): 0.22 ± 0.01 µM
- melting point: 121 to 124 °C

SMILES: Cc1ccc(-c2nn(-c3ccc(S(N)(=O)=O)cc3)cc2-c2nnc(N)s2)cc1 [Compound 10, 4-[4-(5-Amino-1,3,4-thiadiazol-2-yl)-3-(p-tolyl)-1H-pyrazol-1-yl] benzenesulfonamide]
- inhibition at 10 µM (CCRF-CEM): 10.2%
- inhibition at 10 µM (HL-60(TB)): 9.66%
- inhibition at 10 µM (K-562): 11.1%
- inhibition at 10 µM (MOLT-4): < 5%
- inhibition at 10 µM (RPMI-8226): 10.2%
- inhibition at 10 µM (A549/ATCC): < 5%
- inhibition at 10 µM (EKVX): 10.5%
- inhibition at 10 µM (HOP-62): < 5%
- inhibition at 10 µM (HOP-92): 30.8%
- inhibition at 10 µM (NCI-H226): 5.79%
- inhibition at 10 µM (NCI-H23): 10.4%
- inhibition at 10 µM (NCI-H322M): < 5%
- inhibition at 10 µM (NCI-H460): < 5%
- inhibition at 10 µM (NCI-H522): 15.3%
- inhibition at 10 µM (SF-268): < 5%
- inhibition at 10 µM (SF-295): < 5%
- inhibition at 10 µM (SF-539): 15.6%
- inhibition at 10 µM (SNB-19): 7.72%
- inhibition at 10 µM (SNB-75): 19.5%
- inhibition at 10 µM (U251): 9.42%
- inhibition at 10 µM (LOX IMVI): 11.8%
- inhibition at 10 µM (M14): < 5%
- inhibition at 10 µM (MALME-3M): < 5%
- inhibition at 10 µM (MDA-MB-435): < 5%
- inhibition at 10 µM (SK-MEL-28): < 5%
- inhibition at 10 µM (SK-MEL-2): < 5%
- inhibition at 10 µM (SK-MEL-5): 18.5%
- inhibition at 10 µM (UACC-257): 5.16%
- inhibition at 10 µM (UACC-62): < 5%
- inhibition at 10 µM (IGROV1): < 5%
- inhibition at 10 µM (NCI/ADR-RES): < 5%
- inhibition at 10 µM (OVCAR-3): < 5%
- inhibition at 10 µM (OVCAR-4): < 5%
- inhibition at 10 µM (OVCAR-5): < 5%
- inhibition at 10 µM (OVCAR-8): < 5%
- inhibition at 10 µM (SK-OV-3): < 5%
- inhibition at 10 µM (DU-145): < 5%
- inhibition at 10 µM (PC-3): 8.5%
- inhibition at 10 µM (BT-549): 11.2%
- inhibition at 10 µM (HS 578T): 5.02%
- inhibition at 10 µM (MCF-7): 15.8%
- inhibition at 10 µM (MDA-MB-231/ATCC): < 5%
- inhibition at 10 µM (MDA-MB-468): 5.43%
- inhibition at 10 µM (T-47D): 13.2%
- IC50 (hCA IX): 0.66 µM and 0.663 µM
- melting point: 230 to 234 °C

Reference: article PMC12454493, “Insight on novel sulfamoylphenyl pyrazole derivatives as anticancer carbonic anhydrase inhibitors” (Molecular Diversity, 2024)
